For 20 compounds, IC50 results are on record in patent publication US11203591B2, “Substituted 6-azabenzimidazole compounds” (Gilead Sciences, Inc., priority 2018, dated 2021).

SMILES strings stand for the structures.

The target of one experiment is human HPK1 (MAP4K1) (Homo sapiens (Human), UniProt Q92918). Briefly: HPK1 IC50 Assay (TR-FRET peptide phosphorylation). The experiment is classed as biochemical. The note with it: 0.15 nM HPK1, 10 μM ATP, 1 μM STK S1 peptide substrate; geometric mean. The procedure, abridged: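 Pre-activated, dually phosphorylated baculovirus-expressed HPK1 kinase domain (0.15 nM) preincubated 15 min with compound, then reacted 3 h at 25° C with 10 μM ATP and 1 μM STK S1 peptide in BES pH 7.0 buffer. Phosphopeptide read by TR-FRET (665/620 nm); four-parameter fit, geometric-mean IC50.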
human HPK1 (MAP4K1), sequence (Q92918 17-274): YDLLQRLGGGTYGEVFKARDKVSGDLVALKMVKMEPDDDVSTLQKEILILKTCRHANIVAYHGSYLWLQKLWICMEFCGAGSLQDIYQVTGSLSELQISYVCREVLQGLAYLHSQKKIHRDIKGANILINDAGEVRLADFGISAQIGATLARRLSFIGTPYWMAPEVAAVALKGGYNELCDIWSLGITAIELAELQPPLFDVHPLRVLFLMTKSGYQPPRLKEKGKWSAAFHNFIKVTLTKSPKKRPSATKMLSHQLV
With `CNC(=O)c1cc(Nc2nc(-c3cnc4c(c3)N([C@H]3C[C@@](C)(N5CCCCC5)C3)C(=O)C4(C)C)cc3ncn(C(C)C)c23)c(F)c(F)c1Cl` [Example 281, 2-chloro-5-((6-(3,3-dimethyl-1-((1s,3s)-3-methyl-3-(piperidin-1-yl)cyclobutyl)-2-oxo-2,3-dihydro-1H-pyrrolo[3,2-b]pyridin-6-yl)-3-isopropyl-3H-imidazo[4,5-c]pyridin-4-yl)amino)-3,4-difluoro-N-methylbenzamide], the 50% inhibitory concentration (IC50) (as a rule, the midpoint of a concentration-inhibition curve) worked out at 0.07 nM.

The same experiment, now with this note: recombinant HPK1 kinase domain 0.15 nM, 10 μM ATP, 1 μM STK S1 peptide; geometric mean of multiple experiments.
Consider `Cc1c(C(=O)NC2(C(F)F)CC2)cc(Nc2nc(-c3cnc4c(c3)N([C@H]3C[C@@](C)(N5CCCCCC5)C3)C(=O)C4(C)C)cc3ncn(C(C)C)c23)c(F)c1F` [Example 229, 5-((6-(1-((1s,3s)-3-(Azepan-1-yl)-3-methylcyclobutyl)-3,3-dimethyl-2-oxo-2,3-dihydro-1H-pyrrolo[3,2-b]pyridin-6-yl)-3-isopropyl-3H-imidazo[4,5-c]pyridin-4-yl)amino)-N-(1-(difluoromethyl)cyclopropyl)-3,4-difluoro-2-methylbenzamide], for which the IC50 is 0.08 nM.

For the compound `CNC(=O)c1cc(Nc2nc(-c3ccc4c(c3)N([C@H]3C[C@@H](N5CCC(C)(C)C5)C3)C(=O)C43CCN(C(C)=O)CC3)cc3ncn(C4CC4)c23)ccc1C` [Example 159], the IC50 was 0.1 nM.

Turning to `CNC(=O)c1cc(Nc2nc(-c3ccc4c(c3)N([C@H]3C[C@@H](N5CCCCC5)C3)C(=O)C43CCN(C(C)=O)CC3)cc3ncn(C4CC4)c23)c(F)cc1C` [Example 95], the IC50 was found to be 0.3 nM.

On to `CNC(=O)c1cc(Nc2nc(-c3ccc4c(c3)N([C@H]3C[C@@H](N5CCCCC5)C3)C(=O)C43CCN(C(=O)[C@@H](C)O)CC3)cc3ncn(C(C)C)c23)ccc1C` [Example 147], for which the IC50 came to 0.2 nM.

On to `CNC(=O)c1cc(Nc2nc(-c3ccc4c(c3)N([C@H]3C[C@@H](N5CCCCC5)C3)CC4(C)C)cc3ncn(C(C)C)c23)ccc1C` [Example 57], for which the concentration for half-maximal inhibition (IC50) stood at 0.2 nM.

As for `Cc1c(C(=O)NC2(C(F)F)CC2)cc(Nc2nc(-c3cnc4c(c3)N([C@H]3C[C@@H](N5CCCCC5)C3)C(=O)C4(C)C)cc3ncn(C(C)C)c23)c(F)c1F` [Example 246, N-(1-(difluoromethyl)cyclopropyl)-5-((6-(3,3-dimethyl-2-oxo-1-((1s,3s)-3-(piperidin-1-yl)cyclobutyl)-2,3-dihydro-1H-pyrrolo[3,2-b]pyridin-6-yl)-3-isopropyl-3H-imidazo[4,5-c]pyridin-4-yl)amino)-3,4-difluoro-2-methylbenzamide], the IC50 was 0.04 nM.

`Cc1c(C(=O)NC2(C(F)F)CC2)cc(Nc2nc(-c3cnc4c(c3)N([C@H]3C[C@@](C)(N5CCC(F)CC5)C3)C(=O)C4(C)C)cc3ncn(C(C)C)c23)c(F)c1F` [Example 197, N-(1-(Difluoromethyl)cyclopropyl)-3,4-difluoro-5-((6-(1-((1s,3s)-3-(4-fluoropiperidin-1-yl)-3-methylcyclobutyl)-3,3-dimethyl-2-oxo-2,3-dihydro-1H-pyrrolo[3,2-b]pyridin-6-yl)-3-isopropyl-3H-imidazo[4,5-c]pyridin-4-yl)amino)-2-methylbenzamide]: the 50% inhibitory concentration (IC50) amounted to 0.1 nM.

Consider `CCNC(=O)c1cc(Nc2nc(-c3ccc4c(c3)N([C@H]3C[C@@H](N5CCCCC5)C3)C(=O)C4(C)C)cc3ncn(C(C)C)c23)ccc1C` [Example 138], for which the IC50 stood at 0.1 nM.

As to `CC[C@H](C)n1cnc2cc(-c3ccc4c(c3)N([C@H]3C[C@@H](N5CCC[C@@H](F)C5)C3)C(=O)C43CCN(C(C)=O)CC3)nc(Nc3ccc(C)c(C(=O)NC)c3)c21` [Example 157, 5-((6-(1′-acetyl-1-((1S,3R)-3-((R)-3-fluoropiperidin-1-yl)cyclobutyl)-2-oxospiro[indoline-3,4′-piperidin]-6-yl)-3-((S)-sec-butyl)-3H-imidazo[4,5-c]pyridin-4-yl)amino)-N,2-dimethylbenzamide], the IC50 worked out at 0.2 nM.

Consider `CCNC(=O)c1cc(Nc2nc(-c3ccc4c(c3)N([C@H]3C[C@@H](N5CCCCC5)C3)C(=O)C43CCN(C(=O)CC)CC3)cc3ncn(CC)c23)c(F)cc1C` [Example 56], for which the IC50 came out at 0.3 nM.

Take `CC(C)n1cnc2cc(-c3cnc4c(c3)N(C3CC(C)(N5CCC6C[C@@H]6C5)C3)C(=O)C4(C)C)nc(Nc3cc(C(=O)NC4(CF)CC4)c(Cl)c(F)c3F)c21` (some centres unmarked) [Example 258, 5-((6-(1-((1s,3s)-3-(3-azabicyclo[4.1.0]heptan-3-yl)-3-methylcyclobutyl)-3,3-dimethyl-2-oxo-2,3-dihydro-1H-pyrrolo[3,2-b]pyridin-6-yl)-3-isopropyl-3H-imidazo[4,5-c]pyridin-4-yl)amino)-2-chloro-3,4-difluoro-N-(1-(fluoromethyl)cyclopropyl)benzamide]: the IC50 is 0.09 nM.

Regarding `CCNC(=O)c1cc(Nc2nc(-c3ccc4c(c3)N([C@H]3C[C@@H](N5CCCCC5)C3)C(=O)C43CN(C(C)=O)C3)cc3ncn(C(C)C)c23)c(F)cc1C` [Example 178], the IC50 turned out to be 0.3 nM.

Consider `CC(C)n1cnc2cc(-c3cnc4c(c3)N([C@H]3C[C@@](C)(N5C[C@H]6CC[C@@H]5C6)C3)C(=O)C4(C)C)nc(Nc3cc(C(=O)NC4(C(F)F)CC4)c(Cl)c(F)c3F)c21` [Example 263, 5-((6-(1-((1S,3s)-3-((1R,4S)-2-azabicyclo[2.2.1]heptan-2-yl)-3-methylcyclobutyl)-3,3-dimethyl-2-oxo-2,3-dihydro-1H-pyrrolo[3,2-b]pyridin-6-yl)-3-isopropyl-3H-imidazo[4,5-c]pyridin-4-yl)amino)-2-chloro-N-(1-(difluoromethyl)cyclopropyl)-3,4-difluorobenzamide], for which the IC50 came to 0.05 nM.

With `Cc1ccc(Nc2nc(-c3ccc4c(c3)N([C@H]3C[C@@H](N5CCCCC5)C3)C(=O)C4(C)C)cc3ncn(C(C)C)c23)cc1C(=O)NC1(C(F)F)CC1` [Example 27], the IC50 turned out to be 0.07 nM.

`Cc1cc(F)c(Nc2nc(-c3ccc4c(c3)N([C@H]3C[C@@H](N5CCCCC5)C3)C(=O)C43CCOCC3)cc3ncn(C(C)C)c23)cc1C(=O)NC(C)C` [Example 125]: the IC50 stood at 0.2 nM.

For the compound `CC(C)n1cnc2cc(-c3cnc4c(c3)N([C@H]3C[C@@](C)(N5CCC6CC6C5)C3)C(=O)C4(C)C)nc(Nc3cc(C(=O)NC4(C(F)F)CC4)c(Cl)c(F)c3F)c21` (some centres unmarked) [Example 225, 5-((6-(1-((1s,3s)-3-(3-Azabicyclo[4.1.0]heptan-3-yl)-3-methylcyclobutyl)-3,3-dimethyl-2-oxo-2,3-dihydro-1H-pyrrolo[3,2-b]pyridin-6-yl)-3-isopropyl-3H-imidazo[4,5-c]pyridin-4-yl)amino)-2-chloro-N-(1-(difluoromethyl)cyclopropyl)-3,4-difluorobenzamide], the IC50 was found to be 0.08 nM.

Turning to `CCC(=O)N1CCC2(CC1)C(=O)N([C@H]1C[C@@H](N3CCCCC3)C1)c1cc(-c3cc4ncn(C(C)C)c4c(Nc4cc(C(=O)NC(C)C)c(C)cc4F)n3)ccc12` [Example 53], the IC50 turned out to be 0.08 nM.

As for `CCn1cnc2cc(-c3ccc4c(c3)N([C@H]3C[C@@H](N5CCCCC5)C3)C(=O)C43CCN(C(C)=O)CC3)nc(Nc3ccc(C)c(C(=O)NC)c3)c21` [Example 49], the IC50 was found to be 0.1 nM.

For the compound `CNC(=O)c1cc(Nc2nc(-c3ccc4c(c3)N([C@H]3C[C@@H](N5CC[C@@H](F)C5)C3)C(=O)C43CCN(C4COC4)CC3)cc3ncn(C(C)C)c23)c(F)cc1C` [Example 71], the IC50 was 0.1 nM.
